# Experimental data as given in ChEMBL document CHEMBL1201862, “PubChem BioAssay data set” (2004).
#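 Tested at 5 concentrations; 48 h exposure; 96-well plates; endpoints linearly interpolated, else capped at highest concentration. The concentration for 50% growth inhibition is given as GI50.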 Active and inactive are the calls of the source. Cut-off read from the data, not from the text of the source: active = GI50 up to about 1.1 µM and inactive = higher.
# Key:
# Assay in all cases: inhibition of tumour cell growth, NCI panel, 48 h
# NCI-H460 = tested on: NCI-H460
# TK-10 = tested on: TK-10
# A498 = tested on: A498
# MOLT-4 = tested on: MOLT-4
# RXF 393 = tested on: RXF 393
# SK-MEL-28 = tested on: SK-MEL-28
# PC-3 = tested on: PC-3
# NCI-H23 = tested on: NCI-H23
# CAKI-1 = tested on: CAKI-1
# HOP-62 = tested on: HOP-62
# KM12 = tested on: KM12
# HCC 2998 = tested on: HCC 2998
# LOX IMVI = tested on: LOX IMVI
# IGROV-1 = tested on: IGROV-1
# SF-295 = tested on: SF-295
# HL-60 = tested on: HL-60
# DU-145 = tested on: DU-145
# UACC-62 = tested on: UACC-62
# NCI-H522 = tested on: NCI-H522
# NCI-H226 = tested on: NCI-H226
Structure (SMILES),GI50 (NCI-H460),GI50 (TK-10),GI50 (A498),GI50 (MOLT-4),GI50 (RXF 393),GI50 (SK-MEL-28),GI50 (PC-3),GI50 (NCI-H23),GI50 (CAKI-1),GI50 (HOP-62),GI50 (KM12),GI50 (HCC 2998),GI50 (LOX IMVI),GI50 (IGROV-1),GI50 (SF-295),GI50 (HL-60),GI50 (DU-145),GI50 (UACC-62),GI50 (NCI-H522),GI50 (NCI-H226)
C/C=C/C(C#N)(Cc1ccccc1)OP1(=O)OC(c2ccccc2)C(C)N1C (centres undefined),43.6 µM (inactive),> 100 µM (inactive),69.3 µM (inactive),21.2 µM (inactive),> 100 µM (inactive),> 100 µM (inactive),58.6 µM (inactive),87.3 µM (inactive),> 100 µM (inactive),> 100 µM (inactive),45.6 µM (inactive),81.3 µM (inactive),44.1 µM (inactive),95.3 µM (inactive),49.1 µM (inactive),17 µM (inactive),> 100 µM (inactive),56.5 µM (inactive),50.1 µM (inactive),
CNC1=Nc2ccccc2C(=O)N2CSCC12 (centres undefined),> 100 µM (inactive),> 100 µM (inactive),> 100 µM (inactive),> 100 µM (inactive),> 100 µM (inactive),> 100 µM (inactive),> 100 µM (inactive),,> 100 µM (inactive),> 100 µM (inactive),> 100 µM (inactive),> 100 µM (inactive),> 100 µM (inactive),> 100 µM (inactive),> 100 µM (inactive),,> 100 µM (inactive),> 100 µM (inactive),23.9 µM (inactive),> 100 µM (inactive)
c1csc(-c2csc(-c3cccs3)c2)c1,88.3 µM (inactive),67.1 µM (inactive),> 100 µM (inactive),28.6 µM (inactive),6.1 µM (inactive),> 100 µM (inactive),29.7 µM (inactive),24.3 µM (inactive),84.3 µM (inactive),63.1 µM (inactive),28.9 µM (inactive),48.5 µM (inactive),57.7 µM (inactive),78.5 µM (inactive),35.9 µM (inactive),37.5 µM (inactive),> 100 µM (inactive),20.8 µM (inactive),29.4 µM (inactive),
CC(C)(N)CO[C@H]1C[C@H]2CC[C@@]1(C)C2(C)C,17.9 µM (inactive),20 µM (inactive),27.2 µM (inactive),26.3 µM (inactive),12.9 µM (inactive),12.3 µM (inactive),27.1 µM (inactive),23.7 µM (inactive),20.2 µM (inactive),20 µM (inactive),18.1 µM (inactive),2.11 µM (inactive),17.2 µM (inactive),39.2 µM (inactive),19.9 µM (inactive),,25.9 µM (inactive),18.2 µM (inactive),18.7 µM (inactive),24.7 µM (inactive)
Clc1cc(-c2csc(Cl)c2)cs1,> 100 µM (inactive),> 100 µM (inactive),> 100 µM (inactive),> 100 µM (inactive),> 100 µM (inactive),> 100 µM (inactive),> 100 µM (inactive),> 100 µM (inactive),> 100 µM (inactive),,> 100 µM (inactive),,> 100 µM (inactive),> 100 µM (inactive),> 100 µM (inactive),> 100 µM (inactive),> 100 µM (inactive),> 100 µM (inactive),> 100 µM (inactive),> 100 µM (inactive)
CC(C)(C)N/N=C(\C(=O)Nc1ccc([N+](=O)[O-])cc1[N+](=O)[O-])c1nc2ccc([N+](=O)[O-])cc2nc1O,31.8 µM (inactive),,> 100 µM (inactive),35.2 µM (inactive),> 100 µM (inactive),> 100 µM (inactive),96.4 µM (inactive),86.1 µM (inactive),> 100 µM (inactive),,34.4 µM (inactive),37.1 µM (inactive),58.7 µM (inactive),> 100 µM (inactive),31.5 µM (inactive),47.3 µM (inactive),> 100 µM (inactive),> 100 µM (inactive),66.7 µM (inactive),23.7 µM (inactive)
O=C(O)c1c(-c2ccccc2)c(=O)[nH]c2ccccc12,> 100 µM (inactive),> 100 µM (inactive),> 100 µM (inactive),> 100 µM (inactive),> 100 µM (inactive),> 100 µM (inactive),> 100 µM (inactive),> 100 µM (inactive),,> 100 µM (inactive),> 100 µM (inactive),> 100 µM (inactive),> 100 µM (inactive),> 100 µM (inactive),> 100 µM (inactive),> 100 µM (inactive),> 100 µM (inactive),> 100 µM (inactive),> 100 µM (inactive),> 100 µM (inactive)
Cc1c(-c2ccccc2)oc(=O)c2ccccc12,26.4 µM (inactive),23.6 µM (inactive),> 10 µM (inactive),11 µM (inactive),16.5 µM (inactive),19.4 µM (inactive),24.4 µM (inactive),24.8 µM (inactive),22.4 µM (inactive),22.1 µM (inactive),23.4 µM (inactive),18.2 µM (inactive),19.1 µM (inactive),20.2 µM (inactive),18.3 µM (inactive),,37.7 µM (inactive),16.9 µM (inactive),13.8 µM (inactive),17.5 µM (inactive)
CCOC(=O)C#Cc1cccc(C#CC(=O)OCC)c1,11.1 µM (inactive),5.47 µM (inactive),12.5 µM (inactive),,5.31 µM (inactive),5.33 µM (inactive),6.21 µM (inactive),3.66 µM (inactive),4.93 µM (inactive),5.69 µM (inactive),6.65 µM (inactive),0.624 µM (active),2.07 µM (inactive),18.2 µM (inactive),1.65 µM (inactive),1.8 µM (inactive),6.52 µM (inactive),4.94 µM (inactive),15.8 µM (inactive),6.58 µM (inactive)
COC1=Nc2ccccc2S(=O)(=O)C=C1,19 µM (inactive),2.75 µM (inactive),16.8 µM (inactive),,2.69 µM (inactive),7.01 µM (inactive),15 µM (inactive),6.35 µM (inactive),13.3 µM (inactive),43.3 µM (inactive),14.8 µM (inactive),21.4 µM (inactive),2.84 µM (inactive),13.7 µM (inactive),> 45.4 µM (inactive),0.195 µM (active),16.8 µM (inactive),17.9 µM (inactive),1.21 µM (inactive),> 87.3 µM (inactive)
Cc1ccc2c(=O)c(-c3n[nH]c(=S)s3)c[nH]c2n1,> 100 µM (inactive),> 100 µM (inactive),> 100 µM (inactive),> 100 µM (inactive),> 100 µM (inactive),> 100 µM (inactive),> 100 µM (inactive),> 100 µM (inactive),> 100 µM (inactive),> 100 µM (inactive),> 100 µM (inactive),,> 100 µM (inactive),> 100 µM (inactive),> 100 µM (inactive),> 100 µM (inactive),> 100 µM (inactive),> 100 µM (inactive),82.8 µM (inactive),> 100 µM (inactive)
NC(=O)NC(CC(=O)O)C(=O)O (centres undefined),> 100 µM (inactive),> 100 µM (inactive),> 100 µM (inactive),> 100 µM (inactive),> 100 µM (inactive),> 100 µM (inactive),> 100 µM (inactive),> 100 µM (inactive),> 100 µM (inactive),> 100 µM (inactive),> 100 µM (inactive),> 100 µM (inactive),> 100 µM (inactive),> 100 µM (inactive),> 100 µM (inactive),,> 100 µM (inactive),> 100 µM (inactive),> 100 µM (inactive),> 100 µM (inactive)
Cc1ccc(I)cc1N=C=S,23.5 µM (inactive),36 µM (inactive),21.2 µM (inactive),20.2 µM (inactive),20.2 µM (inactive),20.2 µM (inactive),20.3 µM (inactive),19.9 µM (inactive),24.9 µM (inactive),26.1 µM (inactive),17.3 µM (inactive),,22.2 µM (inactive),28.8 µM (inactive),26.9 µM (inactive),21.6 µM (inactive),28.3 µM (inactive),17.3 µM (inactive),17.2 µM (inactive),18.3 µM (inactive)
O=C1C=C(N2CCN(CCOCCO)CC2)C(=O)c2c(O)ccc(O)c21,2.92 µM (inactive),9.64 µM (inactive),14.4 µM (inactive),,13.2 µM (inactive),17.1 µM (inactive),3.07 µM (inactive),2.21 µM (inactive),15.7 µM (inactive),17.9 µM (inactive),12 µM (inactive),2.7 µM (inactive),1.92 µM (inactive),3.74 µM (inactive),14 µM (inactive),2.52 µM (inactive),3.42 µM (inactive),1.82 µM (inactive),2.9 µM (inactive),16.9 µM (inactive)
O=C(NCCC1CNc2ccccc21)OCc1ccccc1 (centres undefined),> 100 µM (inactive),,> 100 µM (inactive),71.4 µM (inactive),> 100 µM (inactive),> 100 µM (inactive),> 100 µM (inactive),> 100 µM (inactive),> 100 µM (inactive),> 100 µM (inactive),> 100 µM (inactive),> 100 µM (inactive),,> 100 µM (inactive),> 100 µM (inactive),,> 100 µM (inactive),> 100 µM (inactive),> 100 µM (inactive),
